Test results published in PMC4216216 (Journal of Medicinal Chemistry, 2014).

What was measured:
[1] = test system: HeLa cells; settings: read-out: cytotoxic IC50 in HeLa cells; cited from earlier work
[2] = molecular target: T1, KDM4B (Homo sapiens, UniProt O94953); settings: 10 μM enzyme, 100 μM inhibitor, 5 μM H3, 37 °C, 30 min
T1 sequence (O94953 1-348): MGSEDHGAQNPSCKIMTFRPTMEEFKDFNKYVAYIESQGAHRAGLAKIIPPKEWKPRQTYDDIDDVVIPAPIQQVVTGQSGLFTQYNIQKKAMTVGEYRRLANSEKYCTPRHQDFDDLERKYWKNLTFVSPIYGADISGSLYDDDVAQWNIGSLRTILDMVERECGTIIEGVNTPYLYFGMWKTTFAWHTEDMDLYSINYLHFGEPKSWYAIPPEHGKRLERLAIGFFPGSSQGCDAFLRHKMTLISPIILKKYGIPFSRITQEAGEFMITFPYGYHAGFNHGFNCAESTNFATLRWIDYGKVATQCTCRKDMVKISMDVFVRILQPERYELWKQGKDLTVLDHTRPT

[3] = molecular target: T2, KDM4A (Homo sapiens, UniProt O75164); assay: Demethylation of calf thymus H3 by KDM4A, western blot; settings: 10 μM enzyme, 100 μM inhibitor, 5 μM H3, 37 °C, 30 min
T2 sequence (O75164 1-347): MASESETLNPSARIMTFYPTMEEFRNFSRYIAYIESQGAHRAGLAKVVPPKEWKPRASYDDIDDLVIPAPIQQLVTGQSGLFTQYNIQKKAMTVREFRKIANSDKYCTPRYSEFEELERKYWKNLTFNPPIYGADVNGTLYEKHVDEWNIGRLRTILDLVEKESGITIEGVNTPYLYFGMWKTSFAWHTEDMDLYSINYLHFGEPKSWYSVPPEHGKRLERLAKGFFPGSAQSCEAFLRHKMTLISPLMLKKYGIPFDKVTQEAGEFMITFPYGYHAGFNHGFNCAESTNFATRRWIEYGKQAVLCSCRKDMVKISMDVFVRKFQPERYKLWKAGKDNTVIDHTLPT

[4] = test system: cultured cells; settings: as a prodrug; cited from earlier work
[5] = molecular target: T1, KDM4B
[6] = molecular target: T2, KDM4A
[7] = test system: LNCaP cells; settings: 5–20 μM, over 6 days
[8] = test system: LNCaP cells; assay: Microarray gene expression in LNCaP cells; assay type: cell-based; settings: 50 μM, 3 days
[9] = test system: RWPE1; assay: RWPE1 normal prostate cell growth; settings: 20 μM treatment
[10] = test system: PNT2 cells; assay: PNT2 normal prostate cell growth; settings: 5–20 μM, over 6 days
[11] = test system: H3K9me3 in LNCaP cells; assay: Histone H3 methylation level in LNCaP cells, western blot; assay type: cell-based

| demethylation of histone H3K9me3 and H3K36me3 by KDM4B [2] | demethylation of histone H3K9me3 and H3K36me3 by KDM4A [3] | activity [5] [%] | activity [6] [%] | inhibitory mode against H3_3–17K9me3, KDM4A [6] | Compound | IC50 [1] [µM] | cytotoxic IC50 in cultured cells [4] | growth of LNCaP cells [7] | expression of oncogenes IGF1R, FGFR3, CCNE2, AURKA and AURKB [8] | expression of tumor suppressors RB1 and CDH1 [8] | growth of RWPE1 cells [9] | effect on PNT2 cells [10] | demethylating activity toward H3K9me3 in LNCaP cells ([11]; 5 μM, 24 h) | level of H3K9me3 in LNCaP cells ([11]; 10 µM, 3 days) | signals of H3K4me2, H3K27me3, H3K27me2, H3K36me3, H3K36me2 and H3K79me2 in LNCaP cells ([11]; 10 µM, 3 days, control vs treated) | cellular level of H3K9me3, dose-dependent ([11]; 1–100 μM, 24 h) |
| --- | --- | --- | --- | --- | --- | --- | --- | --- | --- | --- | --- | --- | --- | --- | --- | --- |
|  |  |  |  |  | O=C(O)c1ccc(O)c2ncccc12 [5-carboxy-8HQ] | 86.5 |  |  |  |  |  |  |  |  |  |  |
| blocked the demethylation activity | blocked the demethylation activity | 24 | 21 |  | O=C(O)c1ccnc(C(=O)O)c1 [Compound 2, pyridine 2,4-dicarboxylic acid] |  | millimolar range |  |  |  |  |  |  |  |  |  |
|  | blocked the demethylation activity |  |  | competitive | O=[N+]([O-])c1cc([N+](=O)[O-])c(/C=C/c2ccc(Cl)c(Cl)c2)cc1/C=C/c1ccc(Cl)c(Cl)c1 [Compound 4, 1,5-bis[(E)-2-(3,4-dichlorophenyl)ethenyl]-2,4-dinitrobenzene] |  |  | significantly affected | downregulation | upregulation | slightly reduced growth | hardly any effect | almost completely blocked | significantly increased | essentially comparable signals | notable increase |
